Where two headings read alike, the source gives them in different places.
How the values were obtained:
Assay type in all cases: cell-based
[1] = system: COS-1 cells; test: MTT assay (cell viability); conditions: for MTT.1µM / MTT.3µM / MTT.10µM / MTT.30µM: cell viability
Description: (§1) To investigate the toxicity as a potential cause of decreased or increased activity in luciferase reporter gene assays, we tested a set of 40 active compounds in the COS-1 cell line used for the luciferase assays. Concentration-dependent toxic effects were investigated using the lactate dehydrogenase (LDH) assay to detect necrosis and the 3-(4,5-dimethylthiazol-2-yl)-2,5-diphenyltetrazolium bromide (MTT) assay as a measure of cell viability. […] For the data analysis, compounds were classified as toxic (Figures 5 and 7) if they induced a >10% decrease in cell viability in the MTT assay at the concentration of 10 μM. The most toxic compounds (35a, 35d, 54, 58, and 63–65) in the MTT assay all contained a phenyl substituent in the southern part ring, while the ortho-nitrophenyl-derivative 39g and the phenyl-substituted thiophene 47t were nontoxic. Higher flexibility in the central parts of the ethers (35a, 35d) and N-acylated amines (58, 64) might contribute to their toxicity, because less rigid compounds are more likely to have affinity to various biological targets. Such interactions can cause toxicity. To confirm and validate the results from MTT assays, we tested three nontoxic (2, 47s, and 72) and three toxic (1, 35a, and 58) compounds in a cell viability assay measuring intracellular ATP content.
(§2) Figure 5 Effects of selected compounds on COS-1 cell viability. (A) Compound-induced necrosis was quantified with the LDH assay after a 24-h compound exposure. The data are presented as cytotoxicity percentage (% of maximal LDH release). (B) Cell viability was analyzed with the MTT assay after a 24-h compound exposure. (A,B) The data are means from 2–3 independent experiments with 3 replicate wells in each and are presented as % of control (vehicle-treated cells). The compounds have been grouped on the basis of the structure of the central part: a, amide; b, ether; c, N-acylated amine; d, amine; and e, imine. (C) The effects of selected compounds on cell viability as determined by ATP content after a 24-h compound exposure. The data are mean + SEM from three independent experiments and are presented as % of vehicle-treated cells.
(§3) For toxicity screening, COS-1 cells were cultured in DMEM (Sigma-Aldrich, Steinheim, Germany) supplemented with 10% fetal bovine serum, 100 U/mL penicillin, and 100 μg/mL streptomycin (all from Gibco, Thermo Scientific) at 37 °C with 5% CO2. The cells were plated on 96-well plates at 10 000 cells/well and exposed to test compounds at a concentration range of 1–30 μM on the following day. After a 24-h compound treatment, lactate dehydrogenase (LDH) and 3-(4,5-dimethylthiazol-2-yl)-2,5-diphenyltetrazolium bromide (MTT) assays were carried out as described previously.[48] Briefly, LDH activity was determined from 50 μL samples of cell culture medium, to which 50 μL of substrate solution [1.3 mM β-nicotinamide-adenine dinucleotide, 660 μM iodonitrotetrazolium, 54 mM L(+)-lactic acid, and 280 μM phenazine methosulfate in 0.2 M Tris-HCl, pH 8.2, all from Sigma-Aldrich] was added, and the plate was incubated for 30 min at room temperature. The reaction was stopped with acetic acid (final concentration 333 mM), and absorbance was measured at 490 nm. The absorbance values of the samples were normalized to maximal LDH release and spontaneous LDH release determined on the same plate. Mitochondrial metabolic activity was quantified by incubating the cells with 0.5 mg/mL MTT (from Sigma-Aldrich) for 2 h at 37 °C with 5% CO2, whereafter culture medium was removed and formazan crystals were dissolved in DMSO. The absorbance was measured at 550 nm, and absorbance at 650 nm was subtracted as background.

[2] = target: T1, GATA4 transcriptional activity (Mus musculus, UniProt Q08369); test: GATA4 luciferase reporter assay (tandem GATA-site reporter, COS-1 cells)
T1 construct: expressed in transfected cells; host or cells: COS-1
Protocol: (§4) To screen compounds for the GATA4–NKX2-5 interaction, we have developed a luciferase reporter assay based on their property to activate gene transcription synergistically through the NKX2-5 binding site on DNA.[28] In this assay, we transfected mammalian COS-1 cells with protein expression vectors for GATA4 and NKX2-5 proteins together with artificial luciferase reporter vector containing three high affinity binding sites for NKX2-5 (NKE). […] All 257 compounds were tested in two concentrations, 3 and 10 μM. Compounds either inhibited, enhanced, or had no effect on the GATA4–NKX2-5 transcriptional synergy. To investigate the selectivity of the active compounds, we tested their effects on NKX2-5 transcriptional activity by using the same luciferase reporter vector as in transcriptional synergy assay with three NKE sites (Figure 3B). Furthermore, we used GATA luciferase reporter assay to examine if compounds have an effect on GATA4 transcriptional activity. In this assay, we cotransfected the cells with a GATA4 protein expression vector and a reporter vector with tandem GATA4 binding sites (Figure 3C). Previously we have reported that compound 1 inhibited the GATA4–NKX2-5 transcriptional synergy at micromolar concentrations (IC50 = 3 μM).[29]
(§5) The plasmids expressing mouse GATA4 protein, pMT2-GATA4, and empty pMT2 were gifts from D. B. Wilson (Department of Pediatrics, St. Louis Children’s Hospital, St. Louis, MO).[44] The plasmids expressing mouse NKX2-5 protein, pMT2-NKX2-5, have been described earlier.[28] The luciferase reporter plasmid used in GATA4–NKX2-5 transcriptional synergy assay and NKX transcriptional assay, pGL3-3xHA, contains three high affinity binding sites for NKX2-5.[28] The luciferase reporter plasmid used in GATA transcriptional assay, NP-112, contains tandem GATA-sites and minimal promoter of rat brain natriuretic peptide (BNP) gene.[45] The pGL3-BNP luciferase reporter containing −534/+4 bp rat BNP proximal promoter described previously was used in hypertrophy assay.[46]
(§6) The primary screening assay of compounds’ effect on GATA4–NKX2-5 transcriptional synergy and COS-1 cell culturing has been described earlier.[33] […] (Kinnunen et al., unpublished observation). Briefly, COS-1 cells were seeded at 14 000 cells/well in Isoplate-96 microplates (PerkinElmer, Turku, Finland) and grown overnight. The cells were transfected with the luciferase reporter plasmid pGL3-3xHA 100 ng/well and equal amounts of expression plasmids pMT2-GATA4 and pMT2-NKX2-5 total 50 ng/well. To verify the synergistic effect, the cells were transfected with pMT2-GATA4 or pMT2-NKX2-5 25 ng/well, and the total DNA concentration was adjusted to 50 ng/well with empty pMT2 plasmid. In NKX2-5 and GATA4 luciferase reporter assays, the cells were transfected with reporter plasmid pGL3-3xHA or NP-112 (100 ng/well) and expression plasmid pMT2-NKX2-5 or pMT2-GATA4 (25 ng/well). The ratio of DNA/transfection reagent (Fugene 6, Promega) was 1:3 in all assays. The transfections were performed in serum and antibiotics free media for 6 h. The cells were treated with compounds or vehicle (0.1% DMSO) for 24 h, and the luminescence was measured using neolite Reporter Gene Assay System (PerkinElmer, Turku, Finland) and Victor2 plate reader (PerkinElmer, Turku, Finland).
(§7) Raw luciferase data were analyzed in Excel, and clear outliers were removed from triplicates by using the Grubb’s test. Data analysis was performed using R.[49] The luciferase data were first normalized on the basis of the combined mean value of controls. For data visualization and creation of figures, the following R packages were used: ggplot2, cowplot, RColorBrewer, and pheatmap. The heatmaps of the toxicity data were produced with GraphPad Prism 7.00 (GraphPad Software, La Jolla, CA). Statistical significance of luciferase reporter assay data was evaluated by randomized block analysis of variance followed by Dunnett’s post hoc test. […]

[3] = target: T2, NKX2-5 transcriptional activity (Mus musculus, UniProt P42582); test: NKX2-5 luciferase reporter assay (3xNKE reporter, COS-1 cells); conditions: COS-1; for activity at 3 µM: read-out: NKX.3µM
T2 construct: expressed in transfected cells; host or cells: COS-1
Protocol: as §4, §5, §6, §7

[4] = system: COS-1 cells; test: LDH assay (necrosis)
Description: as §1, §2, §3

[5] = target: T3, GATA4–NKX2-5 transcriptional synergy (Mus musculus, UniProt P42582+Q08369); test: GATA4–NKX2-5 transcriptional synergy luciferase reporter assay (3xNKE reporter, COS-1 cells); conditions: COS-1
T3 construct: expressed in transfected cells; host or cells: COS-1

[6] = COS-1, luciferase reporter activity relative to control
[7] = luciferase reporter activity relative to control
[8] = luciferase reporter activity, % of control

T1 sequence (Q08369 whole entry): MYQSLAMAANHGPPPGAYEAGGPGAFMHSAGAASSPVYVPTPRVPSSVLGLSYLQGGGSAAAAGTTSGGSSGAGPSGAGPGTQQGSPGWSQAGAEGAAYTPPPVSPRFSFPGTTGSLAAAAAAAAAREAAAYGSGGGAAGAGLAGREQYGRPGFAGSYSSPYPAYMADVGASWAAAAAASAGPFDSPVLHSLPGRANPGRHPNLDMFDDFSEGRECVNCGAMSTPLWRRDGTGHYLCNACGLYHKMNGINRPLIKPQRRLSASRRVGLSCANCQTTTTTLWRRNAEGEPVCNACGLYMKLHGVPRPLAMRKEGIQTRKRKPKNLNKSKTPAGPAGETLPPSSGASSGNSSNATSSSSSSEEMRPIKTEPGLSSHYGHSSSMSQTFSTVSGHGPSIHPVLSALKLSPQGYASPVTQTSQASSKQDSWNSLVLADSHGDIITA
T3 sequence (Q08369 whole entry): as above
T3 sequence (P42582 whole entry): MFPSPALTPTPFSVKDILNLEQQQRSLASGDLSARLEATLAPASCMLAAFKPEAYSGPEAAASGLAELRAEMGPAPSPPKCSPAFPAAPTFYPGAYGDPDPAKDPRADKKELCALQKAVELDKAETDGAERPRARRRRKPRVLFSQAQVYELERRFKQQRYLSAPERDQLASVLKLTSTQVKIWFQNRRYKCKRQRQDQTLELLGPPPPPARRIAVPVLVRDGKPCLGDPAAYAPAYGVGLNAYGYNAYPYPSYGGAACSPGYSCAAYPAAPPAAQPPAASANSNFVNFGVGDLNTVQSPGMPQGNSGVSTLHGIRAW
T2 sequence (P42582 whole entry): as above

Row | activity at 3 µM [2, 6] [%] | activity at 3 µM [3, 7] [%] | activity at 3 µM [5, 7] [%] | SMILES | MTT.1µM [1] | MTT.3µM [1] | MTT.10µM [1] | LDH.1µM [4] | LDH.3µM [4] | LDH.10µM [4] | LDH.30µM [4] | MTT.30µM [1] | other results
1 | 82.8 | 97.2 | 84.5 | C=CCN(Cc1ccc(N(CC)CC)cc1)c1c(-c2ccccc2)noc1C [Compound 30b] | 104.18 | 97.12 | 96.41 | -1.6 | -0.27 | 1.75 | 3.61 | 84.34 | 
2 | 92.4 | 113 | 100 | CCN(CC)c1ccc(CN(C(=O)C(F)(F)F)c2c(-c3ccccc3)noc2C)cc1 [Compound 30c] | 100.8 | 97.78 | 91.24 | 1.2 | 0 | -0.99 | -1.08 | 75.4 | 
3 | 114 | 99 | 97.5 | CCN(CC)c1ccc(CNc2c(-c3ccccc3)noc2C)cc1 [Compound 33, N-[4-(Diethylamino)benzyl]-5-methyl-3-phenylisoxazol-4-amine] | 111.17 | 102.56 | 104.2 | 2.57 | 2.98 | 2.01 | 0.31 | 96.47 | 
4 | 65.3 | 56.8 | 51.3 | CC(=O)COC(=O)c1ccc(OCc2c(-c3ccccc3)noc2C)cc1 [Compound 35d] | 81.99 | 73.26 | 64.91 | -0.61 | -0.5 | -0.15 | -0.05 | 61.12 | toxicity class in the MTT assay ([1]; 24-h exposure, classified at 10 μM): most toxic
5 | 94 | 100 | 81.1 | CCN(CC)c1ccc(NC(=O)c2c(-c3ccncc3)noc2C)cc1 [Compound 39c] | 105.77 | 106.28 | 90.58 | 0.58 | 0.49 | -0.99 | -0.68 | 90.91 | 
6 |  |  |  | CCN(CC)c1ccc(NC(=O)c2c(-c3ccc(F)cc3)noc2C)cc1 [Compound 39d, N-[4-(Diethylamino)phenyl]-3-(4-fluorophenyl)-5-methylisoxazole-4-carboxamide] |  |  |  |  |  |  |  |  | MTT.1µM ([1]; COS-1 cells): 99.41%; MTT.3µM ([1]; COS-1 cells): 97.69%; MTT.10µM ([1]; COS-1 cells): 91.72%; MTT.30µM ([1]; COS-1 cells): 87.25%; activity at 3 µM ([2]; COS-1, luciferase reporter activity, % of control): 94.4%; activity at 3 µM [3, 8]: 73.3%; LDH.1µM ([4]; COS-1 cells): 3.12; LDH.3µM ([4]; COS-1 cells): -0.19; LDH.10µM ([4]; COS-1 cells): -0.49; LDH.30µM ([4]; COS-1 cells): 2.51; activity at 3 µM [5, 8]: 61.4%
7 | 103 | 122 | 87.2 | CCN(CC)c1ccc(NC(=O)c2c(-c3ccsc3)noc2C)cc1 [Compound 39m] | 102.49 | 98.85 | 88.28 | -0.35 | 0.79 | -1.72 | -1.23 | 82.62 | 
8 | 108 | 112 | 101 | CCN(CC)c1ccc(NC(=O)c2cnc3ncccn23)cc1 [Compound 47aa] | 101.8 | 103.86 | 99.76 | 1.59 | 1 | 1.6 | -0.51 | 95.63 | GATA4 (% of control) Mean ± SD ([2]; 10 μM, COS-1 cells, 24 h): 130 % of control; activity at 10 µM ([2]; COS-1, 10 µM, luciferase reporter activity relative to control): 132%; activity at 10 µM ([3]; 10 µM, luciferase reporter activity relative to control, read-out: NKX.10µM): 118%; activity at 10 µM ([5]; 10 µM, luciferase reporter activity relative to control): 144%

Row | SMILES | activity at 3 µM [2, 6] [%] | activity at 3 µM [3, 7] [%] | activity at 3 µM [5, 7] [%] | MTT.1µM [1] | MTT.3µM [1] | MTT.10µM [1] | LDH.1µM [4] | LDH.3µM [4] | LDH.10µM [4] | LDH.30µM [4] | MTT.30µM [1] | other results
9 | Cc1onc(-c2ccccc2)c1C(=O)Nc1ccc(C#C[Si](C)(C)C)cc1 [Compound 4j, 5-Methyl-3-phenyl-N-[4-[(trimethylsilyl)ethynyl]phenyl]isoxazole-4-carboxamide] | 110 | 98.2 | 67.8 | 104.97 | 104.95 | 102.07 | 1.09 | 1.13 | 0.61 | 1.5 |  | 
